Reference: patent US20060128675A1, “Method for monitoring the effectiveness of teracycline in the treatment of asthma” (priority 2002, published 2006)

Tests used:
[1] = tested on: IgE production by stimulated PBMC from asthmatic subjects; assay: IgE production in vitro by anti-CD40 mAb + rhIL-4 stimulated PBMC from asthmatic subjects (IgE ELISA of supernatants); assay type: cell-based, human; conditions: 10 day culture; for IgE: anti-CD40 mAb 1 ug/ml + rhIL-4 200 U/ml, ± SE, 5 asthmatic subjects; for inhibition at 0.1 µg/mL / inhibition at 1 µg/mL / inhibition at 10 µg/mL: Homo sapiens, PBMC, 240 h, versus anti-CD40 + rhIL-4 without treatment
Method: (§1) PBMC were separated from blood on a Ficoll-Paque (Pharmacia, Piscataway, N.J.) gradient (density 1.077). The PBMC were carefully removed using a transfer pipette (VWR Scientific, San Francisco, Calif.). Cells were washed twice in RPMI-1640 medium (GIBCO/BRL, Grand Island, N.Y.), resuspended in RPMI (3 ml), and counted on a hemocytometer (Fisher Scientific, Springfield, N.J.). Viability was >98%, as judged by trypan blue exclusion.
Studies of IgE responses induced in vitro were carried out according to the method of Sampson and Buckley in J. Immunol 1981, 127: 829-834. Briefly, PBMC (1.5×10^6 in 1 ml) were cultured +anti-CD40 mAb (1 ug/ml) (BD Pharmingen, San Diego, Calif.), ± recombinant human interleukin-4 (rhIL-4) (200 U/ml) (Genzyme Corp., Boston, Mass.), in the presence or absence of varying concentrations of either minocycline (Lederle Parenterals Inc., Carolina, Puerto Rico) or doxycycline (American Pharmaceutical Partner Inc., Schaumburg, Ill.), 0.1, 1.0, 10 ug/ml) for 0, 3, and 10 days at 37° C. in complete medium in a humidified 4% CO2 atmosphere. Cell viability was >98%, as judged by trypan blue exclusion, on day 10.
Antibiotics were reconstituted in sterile dH2O, according to manufacturer's recommendations. Complete medium contained RPMI-1640 (Fisher Scientific) and was supplemented with N-2-hydroxyethylpiperazine-N′-2-ethanesulfonic acid buffer (HEPES) (25 mM) (Fisher Scientific), penicillin (100 U/ml) (GIBCO/BRL), streptomycin (100 ug/ml) (Eli Lilly and Co., Indianapolis, Ind.), L-glutamine (2 mM) (GIBCO/BRL), and 10% Fetal Calf Serum (FCS) (GIB CO/BRL). The concentration of rhIL-4 in culture was within 1 bog of physiologic relevance (<100 U/ml), according to bioassay data provided by supplier.
(§2) For the in vitro quantitative determination of IgE content in cell culture supernatants, solid phase sandwich enzyme linked immunosorbent assays (ELISAs) were performed using IgE ELISA Test Kits (Abexon Trend, Ramsey, Minn.). All ELISAs were performed according to the manufacturer's recommended procedure. Specimens were analyzed in duplicate and a standard curve was derived from known concentrations of IgE. Plates were read using an automated microplate reader (Model ELX800) (Bio-Tek Instruments, Inc., Winooski, Vt.), with a 450-nm measurement filter. Optical densities were converted to IU/ml and/or ng/ml. (1 IU=2.4 ng/IgE protein).

[2] = tested on: IgE production by PBMC from non asthmatic subjects; assay: IgE production in vitro by anti-CD40 mAb + rhIL-4 stimulated PBMC from non asthmatic subjects; assay type: cell-based, human; conditions: anti-CD40/rhIL-4
Method: as §1
Studies of IgE responses induced in vitro were carried out according to the method of Sampson and Buckley in J. Immunol 1981, 127: 829-834. […]
as §2, with “All ELISAs were performed according to the manufacturer's recommended procedure.” left out, “Optical densities were converted to IU/ml and/or ng/ml. (1 IU=2.4 ng/IgE protein).” left out

[3] = tested on: rheumatoid arthritis (RA) patients; conditions: mild and moderate RA patients; cited from earlier work

SMILES | IgE ([1]; 0.1 ug/ml) | IgE ([1]; 1.0 ug/ml) | IgE ([1]; 10 ug/ml) | inhibition at 0.1 µg/mL ([1]; 0.1 ug/ml) | inhibition at 1 µg/mL ([1]; 1.0 ug/ml) | inhibition at 10 µg/mL ([1]; 10 ug/ml) | effect on IgE responses of PBMC of non asthmatic donors [2] | side effects [3]
C[C@H]1c2cccc(O)c2C(=O)C2=C(O)[C@]3(O)C(=O)C(C(N)=O)=C(O)[C@@H](N(C)C)[C@@H]3[C@@H](O)[C@@H]21 [doxycycline] | 20 ± 9 ng/mL | 14 ± 7 ng/mL | 5 ± 2 ng/mL | 29% | 50% | 83% | no effect | 
CN(C)c1ccc(O)c2c1C[C@H]1C[C@H]3[C@H](N(C)C)C(O)=C(C(N)=O)C(=O)[C@@]3(O)C(O)=C1C2=O [minocycline] | 16 ± 5 ng/mL | 18 ± 7 ng/mL | 5 ± 2 ng/mL | 43% | 36% | 83% | no effect | no side effects
